# Measured values taken from patent US11241421B2, “Combination therapies for treating cancer” (UNIVERSITY OF VIRGINIA PATENT FOUNDATION, priority 2016, dated 2022).
# Columns and labels:
# [1] = compared with daunorubicin; cited from earlier work
# [2] = compared with daunorubicin; cited from earlier work; remark: listed apart in the source
# [3] = test system: CBFβ-SMMHC fusion protein; conditions: cited from earlier work
# [4] = compared with doxorubicin; cited from earlier work
# [5] = relative to the methoxy compound; cited from earlier work
# CBFβ = target: T1, CBFβ (Homo sapiens, UniProt Q13951); conditions: cited from earlier work
# T1 sequence (Q13951 1-182): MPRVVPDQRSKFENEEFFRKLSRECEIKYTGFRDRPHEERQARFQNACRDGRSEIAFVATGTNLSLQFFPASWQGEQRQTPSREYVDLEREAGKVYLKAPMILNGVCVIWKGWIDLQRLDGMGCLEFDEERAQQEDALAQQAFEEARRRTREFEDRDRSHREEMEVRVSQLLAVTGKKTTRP
# [6] = test system: ME-1 cell line, a leukemia cell line with inv(16); conditions: cited from earlier work
# [7] = test system: Cbfb^+/MYH11; Nras^+/G12D leukemic cells; experiment: Leukemia transplantation studies in mice (inv(16) AML model); assay type: in vivo; conditions: for white blood cell count: peripheral blood, doxorubicin 2 mg/kg single dose, AI-10-49 200 mg/kg daily intraperitoneally for 10 days, FIG. 1; for Lin-Sca1-c-Kit+ cell population (number of cells): spleen, flow cytometry, same dosing, FIG. 4
# Protocol: The experiments with animals were performed in accordance with a protocol reviewed and approved by the University of Massachusetts Institutional Animal Care and Use Committee. An efficient mouse model of inv(16)AML was used. (L. Xue, et al., 2014.) Leukemic cells carrying Cbfb^+/MYH11 and Nras^+/G12D oncogenic alleles were generated in CD45.2 C57BL/6 mice, as previously described (Illendula, et al., 2015.) Briefly, 2×10^3 Cbfb^+/MYH11; Nras^+/G12D leukemic cells were transplanted into each of 16 sub-lethally irradiated six to eight-week-old CD45.1 C57BL/6 female mice. Five days post-transplant, mice were placed in 4 groups with 4 mice in each group: DMSO (control, 50 μL), Dox, AI-10-49, and Dox+AI-10-49. Both Dox groups received a single dose of doxorubicin (2 mg/kg) 5 days post-transplant. Both AI-10-49 groups received a daily dose of AI-10-49 (200 mg/kg) in DMSO injected intraperitoneally for 10 days. After this 10-day period, all mice were sacrificed and analyzed for leukemia burden via several measures. Mice were kept under observation by more than one person to determine the median leukemia latency, and were euthanized once signs of disease were detected, including reduced motility and grooming activity, hunched back, pale paws (anemia), and hypothermia. At time of euthanasia, peripheral blood and spleen cells were extracted and analyzed as previously described (Y. H. Kuo, et al., 2006.). Leukemia burden was analyzed in peripheral blood by measuring the total white blood cell counts, the number of cells in the c-kit(+)-gated population, spleen weight and cell number, and spleen Lin-Sca1-c-kit+ population. For Kit+ and Lin-Sca-Kit+ results, flow cytometry was used to measure the effect.
structure (smiles),measurement,setting,value
CC(=O)[C@]1(O)Cc2c(O)c3c(c(O)c2[C@@H](O[C@H]2C[C@H](N)[C@H](O)[C@H](C)O2)C1)C(=O)c1ccccc1C3=O [Idarubicin],cellular uptake,[1],higher
same,lipophilicity,[2],more lipophilic
"COc1ccc2[nH]c(-c3ccccn3)nc2c1 [AI-4-57, 5-methoxy-2-(pyridin-2-yl)-1H-benzo[d]imidazole]",binding to the CBFβ-SMMHC fusion protein,[3],binds to the CBFβ portion of the CBFβ-SMMHC fusion protein
same,inhibition of CBFβ-SMMHC binding to the Runt domain of RUNX proteins,[3],inhibits its binding to the Runt domain of RUNX proteins
COc1cccc2c1C(=O)c1c(O)c3c(c(O)c1C2=O)C[C@@](O)(C(=O)CO)C[C@@H]3O[C@H]1C[C@H](N)[C@@H](O)[C@H](C)O1 [Epirubicin],half-life,[4],longer
same,volume of distribution,[4],increased
"FC(F)(F)Oc1ccc2[nH]c(-c3ccccn3)nc2c1 [A-10-47, 2-(pyridin-2-yl)-5-(trifluoromethoxy)-1H-benzo[d]imidazole]",metabolic stability,[5],enhanced metabolic stability
FC(F)(F)Oc1ccc2[nH]c(-c3ccc(OCCOCCOc4ccc(-c5nc6cc(OC(F)(F)F)ccc6[nH]5)nc4)cn3)nc2c1 [AI-10-49],effect on CBFβ function,CBFβ,minimal effect
same,cell death,[6],induced cell death
same,white blood cell count,[7],reduced
same,Lin-Sca1-c-Kit+ cell population (number of cells),[7],modest effect
same,inhibition of CBFβ-SMMHC binding to the Runt domain of RUNX proteins,[3],potent and CBFβ-SMMHC specific
"COc1cccc2c1C(=O)c1c(O)c3c(c(O)c1C2=O)C[C@@](O)(C(=O)CO)C[C@@H]3O[C@H]1C[C@H](N)[C@H](O)[C@H](C)O1 [Dox, doxorubicin]",white blood cell count,[7],reduced
same,Lin-Sca1-c-Kit+ cell population (number of cells),[7],no effect
